Structures can show the parent of a compound that is named as a salt. Where two headings read alike, the source gives them in different places.
Key:
[1] = system: cell damage; assay: Cell damage by derivatives with free hydrogen atoms on the ammonium group; format: cell-based; conditions: words
[2] = system: platelets; format: cell-based
Method: The viral inactivation values and in vitro properties of platelets subjected to viral inactivation treatment using various derivatives of psoralen are summarized in Table 1.
2 mL PRP samples (plastic disposable petri dishes) containing 0.1 mg/mL
sensitizer were irradiated with UVA for 6 min. (1.19 J/cm^2). The
intensity of UVA radiation at sample position was measured at 3.3
mW/cm^2. The data was obtained from three separate experiments using
different platelet concentrates. Values are mean ± SD.

[3] = system: salmonella mutants; assay: Ames mutagenicity, overall; format: cell-based, Salmonella typhimurium; conditions: 0.6 mg/ml; words
Method: (§1) The standard Ames mutagenicity test using salmonella mutants was performed on brominated sensitizer 8B at 0.6 mg/ml.

[4] = system: single unit platelet concentrates; assay: Platelet in vitro properties in single unit platelet concentrates after UVA treatment; format: cell-based; parameters: ADP Agg. / Collagen / HSR: unit not given here; conditions: for ADP Agg. / Cell count / Collagen / HSR / Morphology / pH: Treated, 0.03 mg/mL, UVA 10 min
Method: (§2) Single unit platelet concentrates were obtained 24 hours after collection from certified blood banks. The platelets were subjected to soft spin to remove residual RBC and about 6 logs of .phi.6 phage and sensitizer 8B were added in PBS solution to obtain 0.03 mg/ml final sensitizer concentration. The samples were transferred to Stericonpolyolefin bag (which transmits 60% of UVA light) and irradiated from top (3.6 mW/cm^2)and bottom (3.4 mW/cm^2) in a home made reactor for 10 min. The bags were continuously mixed on extended glass platform attached to orbital shaker. The viral inactivation values and in vitro properties of platelet concentrates were monitored for 2 days after the treatment.
(§3) Single units of platelet concentrates in Cryocyte ™ bag containing 0.03
(§4) mg/mL #8B sensitizer (Appendix I) were irradiated from top (3.6
(§5) mW/cm^2) and bottom (3.4 mW/cm^2) using UVA radiation in a home
(§6) made reactor for 10 min (4.2 J/cm^2). After the treatment platelet
(§7) concentrates were transferred into original platelet containers and stored
(§8) in a platelet incubator for indicated period of time.
(§9) Platelet viability assays were carried out immediately after treatment and
(§10) reduction in treated samples was determined by the plaque assay. The
(§11) values are mean ±S.D (n = 3)

[5] = system: .phi.6 phage; assay: Viral inactivation in red blood cells (UVA, full units); format: cell-based; conditions: Erythrocyte, light or radiation study
Method: (§12) Units of packed red cells were transferred to Stericon red cell freezing bags and the hematocrits were adjusted to 60% with PBS. The samples were spiked with 5×10^6 PFU/ml .phi.6 phage and 0.3 mg/mL sensitizer 8B. The contents of the bag were exposed to UVA light from top (3.6 mW/cm^2) and bottom (3.4 mW/cm^2) for 6 hours (151.2 J/cm^2). The samples were mixed continuously during UVA exposure on an orbital shaker. The final viral titre in the sample was determined by the plaque method. In vitro biochemical and biophysical properties of treated red cells were monitored for 7 days following the treatment.
(§13) Viral inactivation treatment was carried out in packed red cells (full
(§14) units, 60% Hct.) containing model virus (.phi.6 phage) and 8B sensitizer
(§15) (0.3 mg/mL) in a Sericon red cells freezing bag (altered). The bags were
(§16) irradiated from top (3.6 mW/cm^2) and bottom (3.4 mW/cm^2) in a
(§17) home made reactor for 6 hours (151.2 J/cm^2). The sample was mixed
(§18) continuously during UVA exposure on a orbital shaker.

[6] = system: .phi.6 phage; assay: Viral inactivation in single unit platelet concentrates (UVA); format: cell-based; conditions: light or radiation study, 10 min
Method: as §2, §3, §4, §5, §6, §7, §8, §9
following 24 & 48 hours storage in a platelet incubator. The viral
as §10, §11

[7] = system: Salmonella typhimurium TA1538; assay: Ames mutagenicity, plate incorporation assay; format: cell-based
Method: as §1

[8] = system: Salmonella typhimurium TA98; assay: Ames mutagenicity, plate incorporation assay; format: cell-based
Method: as §1

[9] = system: Salmonella typhimurium TA1537; assay: Ames mutagenicity, plate incorporation assay; format: cell-based
Method: as §1

[10] = system: Salmonella typhimurium TA1535; assay: Ames mutagenicity, plate incorporation assay; format: cell-based
Method: as §1

[11] = system: Salmonella typhimurium TA100; assay: Ames mutagenicity, plate incorporation assay; format: cell-based
Method: as §1

[12] = system: .phi.6 phage; assay: Comparison of viral inactivation efficiencies of brominated and non-brominated sensitizers in platelets (UVA); format: cell-based; conditions: 8B versus 8C, 0.1 mg/ml, UVA 3.3 mW/cm^2
Method: To test the viral inactivation efficiency of brominated sensitizers, platelet preparations (2 ml, PRP) were spiked with .phi.6 phage and brominated psoralen (8B) and non-brominated psoralen(8C) were added to obtain final sensitizer concentration of 0.1 mg/ml. The samples were exposed to UVA light in a home made reactor consisting of 4 UVA lamps for the indicated time periods. The petri dishes containing samples were mixed on an orbital shaker during UVA exposure. The UVA light intensity at the sample position was measured at 3.3 mW/cm^2. The residual viral titre after each time point was measured by plaque method. The viral reduction values are illustrated in FIG. 26.

[13] = system: λ; assay: Inactivation of viruses in human plasma and bovine serum with UV activation; format: cell-based, λ phage; conditions: light or radiation study, 0.5 h, Fetal bovine serum, 0.03 mg/ml, UVA 30 min (8.4 J/cm^2), read-out: Viral Reduction (log)
Method: Viral inactivation in FBS was carried out in 100 ml serum samples in 225 cm^2 tissue culture flask in the presence of sensitizer 8B (0.03 mg/ml). The sample was exposed to UVA light from top (3.6 mW/cm^2) and bottom (3.4 mW/cm^2) while continuously mixing on an orbital shaker for 30 min. (8.4 J/cm^2). Human plasma was irradiated in a Pyrex glass photolysis cell in the presence of sensitizer 8 (0.1 mg/ml) for 5 min. Inactivation of various bacteriophages were carried out using brominated psoralens in combination with UVA light. The results in Table 5 clearly indicate that 5-7 logs of viral reduction was obtained with various phage (enveloped and non-enveloped) in human plasma fractions and fetal bovine serum products.

[14] = system: red cells; assay: Red cell in vitro properties after viral inactivation treatment (UVA); format: cell-based; parameters: MCV / MCH / MCHC: unit not given here; conditions: for % Hemichrome / % Met Hb. / % Oxy Hb. / MCH / MCHC / MCV / DI Max % control: Treated; for % Hemichrome / % Met Hb. / % Oxy Hb. / MCH / MCHC / MCV: UVA 6 hours; for DI Max % control: ektacytometry
Method: as §12
DI Max, Deformability index by ektacytometry
as §13, §14, §15, §16, §17, §18
Data was collected from 3 separate experiments and the values are mean

For `Cc1oc2c(C)c3oc(=O)cc(C)c3cc2c1CN` [AMT, 4'-aminomethyl-4,5',8-trimethylpsoralen], the cell damage [1] was “unacceptable levels of cell damage” and the “hypotonic shock response (HSR) and ADP aggregation response relative to the control” value [2] was “substantial reduction”.

`CC[N+](CC)(CC)CCCOc1c2occc2c(Br)c2ccc(=O)oc12` [Sensitizer #8B, 5-Bromo-8 (γ-Triethylaminopropyloxy) Psoralen Hydrochloride] was tested, and the mutagenicity [3] was “non-mutagenic”, the “platelet in vitro properties” value ([4]; Example 15 text, words) was “excellent retention of platelet in vitro properties” and the “ADP Agg.” value ([4]; 0 Hour) was 43 ± 12. It also gave a Cell count ([4]; 0 Hour) of 474 ± 20, a Collagen ([4]; 0 Hour) of 72 ± 3 and an HSR ([4]; 0 Hour) of 65 ± 8. For the same molecule, the Morphology ([4]; 0 Hour) was 233 ± 17, the pH ([4]; 0 Hour) was 7.2 ± 0.1 and the “ADP Agg.” value ([4]; 24 Hours) was 34 ± 19. The Cell count ([4]; 24 Hours) was 499 ± 50, the Collagen ([4]; 24 Hours) was 65 ± 3 and the HSR ([4]; 24 Hours) was 65 ± 6. It also gave a Morphology ([4]; 24 Hours) of 230 ± 19, a pH ([4]; 24 Hours) of 7.1 ± 0.2 and a Collagen ([4]; 43 Hours) of 60 ± 4. For the same molecule, the pH ([4]; 43 Hours) was 6.8 ± 0.1, the HSR ([4]; 48 Hours) was 70 ± 6 and the log reduction at 300 µg/mL ([5]; 6 h, read-out: viral reduction) was greater than 6.6. It also gave a log reduction at 300 µg/mL ([5]; Treated, Day 1, 0.3 mg/mL, UVA 6 hours (151.2 J/cm^2), read-out: Viral Reduction (log)) of 6.6 ± 0.1, a log reduction at 30 µg/mL ([6]; Treated, 0 Hour, 0.03 mg/mL, UVA 10 min (4.2 J/cm^2), n = 4, read-out: V.I) of 5.3 ± 0.2 and a log reduction at 30 µg/mL ([6]; read-out: viral reduction) greater than 5.3. The “Number of Revertan Colonies” value ([7]; TA1538, with S-9, average of duplicate plates) was 25, the “Number of Revertan Colonies” value ([7]; TA1538, without S-9, average of duplicate plates) was 22 and the “Number of Revertan Colonies” value ([8]; TA98, with S-9, average of duplicate plates) was 83. For the same molecule, the “Number of Revertan Colonies” value ([8]; TA98, without S-9, average of duplicate plates) was 55, the “Number of Revertan Colonies” value ([9]; TA1537, with S-9, average of duplicate plates) was 26 and the “Number of Revertan Colonies” value ([9]; TA1537, without S-9, average of duplicate plates) was 36. For the same molecule, the “Number of Revertan Colonies” value ([10]; TA1535, with S-9, average of duplicate plates) was 197, the “Number of Revertan Colonies” value ([10]; TA1535, without S-9, average of duplicate plates) was 173 and the “Number of Revertan Colonies” value ([11]; TA100, with S-9, average of duplicate plates) was 245. For the same molecule, the “Number of Revertan Colonies” value ([11]; TA100, without S-9, average of duplicate plates) was 164, the “improvement in the level of viral inactivation (brominated versus non-brominated)” value [12] was no more than 400 fold and the log reduction at 30 µg/mL [13] was 6.6. For the same molecule, the “in vitro biochemical and biophysical properties of red cells” value ([14]; Example 16 text, words) was “without any significant alterations”, the “% Hemichrome” value ([14]; Day 1, 0.3 mg/mL) was 1.9 ± 1.5% and the “% Met Hb.” value ([14]; Day 1, 0.3 mg/mL) was 2.9 ± 1.5%. For the same molecule, the “% Oxy Hb.” value ([14]; Day 1, 0.3 mg/mL) was 95.2 ± 0.1%, the MCH ([14]; Day 1, 0.3 mg/mL) was 30.9 ± 0.1 and the MCHC ([14]; Day 1, 0.3 mg/mL) was 34.9 ± 0.4. For the same molecule, the MCV ([14]; Day 1, 0.3 mg/mL) was 88.8 ± 2.5, the “DI Max % control” value ([14]; Day 1, 0.3 mg/mL) was 97.4 ± 3.6 % control and the “% Hemichrome” value ([14]; Day 2, 0.3 mg/mL) was 0.6 ± 0.9%. For the same molecule, the “% Met Hb.” value ([14]; Day 2, 0.3 mg/mL) was 1.7 ± 1.7%, the “% Oxy Hb.” value ([14]; Day 2, 0.3 mg/mL) was 97.7 ± 1.7% and the MCH ([14]; Day 2, 0.3 mg/mL) was 30.3 ± 0.4. For the same molecule, the MCHC ([14]; Day 2, 0.3 mg/mL) was 33.8 ± 0.9, the MCV ([14]; Day 2, 0.3 mg/mL) was 89.8 ± 1.7 and the “DI Max % control” value ([14]; Day 2, 0.3 mg/mL) was 99.6 ± 3.8 % control. The “% Hemichrome” value ([14]; Day 7, 0.3 mg/mL) was 0.2 ± 0.2%, the “% Met Hb.” value ([14]; Day 7, 0.3 mg/mL) was 1.4 ± 1.2% and the “% Oxy Hb.” value ([14]; Day 7, 0.3 mg/mL) was 98.5 ± 1.0%. It also gave an MCH ([14]; Day 7, 0.3 mg/mL) of 30.1 ± 0.8, an MCHC ([14]; Day 7, 0.3 mg/mL) of 33.6 ± 1.6 and an MCV ([14]; Day 7, 0.3 mg/mL) of 89.8 ± 1.7. For the same molecule, the “DI Max % control” value ([14]; Day 7, 0.3 mg/mL) was 99.0 ± 5.9 % control.

Source: patent US6187572A, “Method of inactivation of viral and bacterial blood contaminants” (Baxter International Inc., priority 1993, dated 2001)
